# “Also recorded” adds a separate entry of the source.
# Columns and labels:
# NHDF (normal human skin) = assay: Cytotoxicity (sulphorhodamine B), normal cell line, Table 1B; assay type: cell-based; details: 72 h
# [1] = system: RPMI-7666 (normal human PBLs); assay: as above; assay type: cell-based; details: 72 h
# [2] = system: BALB/c 3T3 (normal mouse embryo); assay: as above; assay type: cell-based; details: BALB/c3T3, 72 h
# [3] = system: CHO (Chinese hamster ovary); assay: as above; assay type: cell-based; details: Cricetulus griseus, 72 h
# [4] = system: CHO (normal human mammary); assay: as above; assay type: cell-based; details: Homo sapiens, 72 h
# SK (melanoma) = assay: Cytotoxicity (sulphorhodamine B), cancer cell line, Table 1B; assay type: cell-based; details: 72 h
# Capan-1 (pancreatic) = assay: as above; assay type: cell-based; details: Homo sapiens, CAPAN-1, 72 h
# H322 (lung carcinoma) [5] = assay: as above; assay type: cell-based; details: NCI-H322, 72 h
# MCF-7 (breast carcinoma) [6] = assay: as above; assay type: cell-based; details: Homo sapiens, MCF7, 72 h
# [7] = system: BT-549 (breast carcinoma); assay: as above; assay type: cell-based; details: Homo sapiens, BT-549, 72 h
# [8] = system: OVCAR-3 (ovarian carcinoma); assay: as above; assay type: cell-based; details: Homo sapiens, OVCAR-3, 72 h
# HT-29 (colon carcinoma) = assay: as above; assay type: cell-based; details: Homo sapiens, HT-29, 72 h
# SIHA (cervix carcinoma) = assay: as above; assay type: cell-based; details: Homo sapiens, SiHa, 72 h
# [9] = system: 786-0 (renal cell carcinoma); assay: as above; assay type: cell-based; details: Homo sapiens, 786-0, 72 h
# [10] = system: PC-3 (prostate carcinoma); assay: as above; assay type: cell-based; details: Homo sapiens, 72 h
# [11] = system: HL-60 (promyel carcinoma); assay: as above; assay type: cell-based; details: Homo sapiens, HL-60, 72 h
# [12] = system: MOLT-4 (T-cell leukaemia); assay: as above; assay type: cell-based; details: Homo sapiens, MOLT-4, 72 h
# L1210 (mouse leukaemia) = assay: as above; assay type: cell-based; details: L1210, 72 h
# [13] = system: UCLA-P-3 (lung carcinoma); assay: as above; assay type: cell-based; details: Homo sapiens, UCLA P-3, 72 h
# [14] = system: 786-0 (human perirenal cell adenocarci); assay: Cytotoxicity, Example 8; assay type: cell-based; details: 786-0, 72 h
# Protocol: (§1) Tumor or normal cells were cultured in 96-well plates with the test compound in 200 μl of RPMI supplemented with 10% fetal bovine serum (Hyclone, Salt Lake City, Utah) at 37° C. in a humidified atmosphere containing 5% CO2 in air for 72 hours. Sulforhodamine B dissolved in 1% acetic acid was added, and the plates were incubated for 30 minutes at ambient temperature, washed with 1% acetic acid, and blotted. To the air-dried plates were added 100 μl of […] unbuffered TRIS base (pH 10.5) with shaking. The optical densities of the plates were measured with a microplate reader (Molecular Devices Thermomax) at 540 nm. The concentration of compound required to reduce the absorbance to 50% of control samples was recorded as IC50.
# (§2) NHDF: Normal human dermal fibroblast (available from Clouelics Corp., San Diego, Calif.); HLF-1: Normal human diploid lung; W1-38; Normal human diploid lung; CHO; Chinese hamster ovary; SK-MEL-28: Melanoma; CAPAN-1: Pancreatic carcinoma; H322: lung carcinoma; MCF-7; Breast carcinoma; BT-549; Human breast ductal carcinoma; OVCAR-3: Human ovarian carcinoma; HT-29: Human adenocarcinoma, colon; SIHA: Human squamous carcinoma crvx; 786-0: Human perirenal cell adenocarci; PC-3: Human prostate adenocarcinoma; HL-60: Human promyelomic leukemia; MOLT-4: Human T-cell leukemia. All cell lines except NHDF are available from the American Tissue Culture Collection, Rockville, Md.
# [15] = system: BT-549 (human breast ductal carcinoma); assay: Cytotoxicity, Example 8; assay type: cell-based; details: BT-549, 72 h
# Protocol: as §1, §2
# [16] = system: CAPAN-1 (pancreatic carcinoma); assay: Cytotoxicity, Example 8; assay type: cell-based; details: Homo sapiens, CAPAN-1, 72 h
# Protocol: as §1, §2
# [17] = system: CHO (Chinese hamster ovary); assay: Cytotoxicity, Example 8; assay type: cell-based; details: Cricetulus griseus, 72 h
# Protocol: as §1, §2
# H322 (lung carcinoma) [18] = assay: Cytotoxicity, Example 8; assay type: cell-based; details: NCI-H322, 72 h
# Protocol: as §1, §2
# [19] = system: HLF-1 (normal human diploid lung); assay: Cytotoxicity, Example 8; assay type: cell-based; details: HLF1, 72 h
# Protocol: as §1, §2
# [20] = system: HT-29 (human adenocarcinoma, colon); assay: Cytotoxicity, Example 8; assay type: cell-based; details: HT-29, 72 h
# Protocol: as §1, §2
# MCF-7 (breast carcinoma) [21] = assay: Cytotoxicity, Example 8; assay type: cell-based; details: Homo sapiens, MCF7, 72 h
# Protocol: as §1, §2
# [22] = system: NHDF (normal human dermal fibroblast); assay: Cytotoxicity, Example 8; assay type: cell-based; details: 72 h
# Protocol: as §1, §2
# [23] = system: OVCAR-3 (human ovarian carcinoma); assay: Cytotoxicity, Example 8; assay type: cell-based; details: OVCAR-3, 72 h
# Protocol: as §1, §2
# [24] = system: PC-3 (human prostate adenocarcinoma); assay: Cytotoxicity, Example 8; assay type: cell-based; details: 72 h
# Protocol: as §1, §2
# [25] = system: S1HA (human squamous carcinoma crvx); assay: Cytotoxicity, Example 8; assay type: cell-based; details: 72 h
# Protocol: as §1, §2
# SK-MEL-28 (melanoma) = assay: Cytotoxicity, Example 8; assay type: cell-based; details: Homo sapiens, SK-MEL-28, 72 h
# Protocol: as §1, §2
# [26] = system: W1-38 (normal human diploid lung); assay: Cytotoxicity, Example 8; assay type: cell-based; details: W138, 72 h
# Protocol: as §1, §2
# physchem = assay: physchem
# Protocol: The solubilities of the synthesized protaxols in D2 O were determined by 1H NMR spectroscopy.
# The resulting mixture was centrifuged for 20 minutes and the supernatant saturated solution was analysed by ^1 H NMR spectroscopy using a Bruker AMX-400 instrument and methanol or pyridine as internal standard. The concentration of the compound was determined by comparing several signals with the CH3 signal of methanol or the NCH signal of pyridine.
# tubulin / microtubules = assay: Tubulin polymerization-depolymerization (CaCl2-induced depolymerization of microtubules); assay type: biochemical; details: 10^-6 M; 1.0 mg/mL tubulin; CaCl2 0.25 mM after 16 minutes; 37° C.; initial, no prior release
# Protocol: Tubulin polymerization to microtubules is promoted by GTP, whereas CaCl2 causes depolymerization of microtubules back to tubulin (FIG. 3A). […] The designed protaxol 5 was tested for its ability to stabilize microtubules formed from tubulin via the action of GTP. […] These findings are in agreement with the previously reported loss of activity resulting from blocking the C-2' hydroxyl group.
# Tubulin polynerization-depolymerization experiments with taxol and designed protaxol 5 are illustrated in FIG. 3. CaCl2 -promoted depolymerization of microtubules was suppressed by taxol and protaxol 5 (after taxol release).
# These measurements may be conducted at 37° C. following a recently developed procedure described by R. Merlock and W. Wrasidlo (Analytical Biochemistry, 1993). In each case 1.0 mM GTP may be employed to promote initial polymerization of tubulin.
# D: Tubulin (1.0 mg/mL) with protaxol 5 (10^-6 M) after release of taxol (as determined by HPLC, essentially quantitative conversion).
# [27] = system: broad spectrum of cell lines; assay: Cytotoxicity against a broad spectrum of cell lines (overall); details: Table 1B
# Protocol: The protaxols synthesized in this study were tested against a broad spectrum of cell lines ranging from the multiple-drug resistant ovarian (OVCAR-3) to lung (H-322) and leukemia (MOLT-4) cells in order to assess cytotoxicity, cell-type selectivity, and duration of action.
# The cytotoxicities were determined using the sulphorhodamine B assay method (Skehan, P. et al. J. Nat. Canc. Inst. 82, 1107 (1990)).
# [28] = cited from earlier work
structure (smiles),measurement,setting,value
CC(=O)O[C@H]1C(=O)[C@@]2(C)[C@H]([C@H](OC(=O)c3ccccc3)[C@]3(O)C[C@H](OC(=O)[C@H](O)[C@@H](NC(=O)c4ccccc4)c4ccccc4)C(C)=C1C3(C)C)[C@]1(OC(C)=O)CO[C@@H]1C[C@@H]2O [Taxol],IC50,NHDF (normal human skin),1000 nM
same,IC50,[1],100 µM
same,IC50,[2],1000 nM
same,IC50,[3],100 µM
same,IC50,[4],100 µM
same,IC50,SK (melanoma),10 µM
same,IC50,Capan-1 (pancreatic),< 1 nM
same,IC50,H322 (lung carcinoma) [5],1 nM
same,IC50,MCF-7 (breast carcinoma) [6],< 10 µM
same,IC50,[7],1 nM
same,IC50,[8],< 1 nM
same,IC50,HT-29 (colon carcinoma),< 1 nM
same,IC50,SIHA (cervix carcinoma),10 µM
same,IC50,[9],100 nM
same,IC50,[10],1000 nM
same,IC50,[11],< 1 nM
same,IC50,[12],< 1 nM
same,IC50,L1210 (mouse leukaemia),1000 nM
same,IC50,[13],< 1 nM
same,IC50,[14],184 nM
same,IC50,[15],44.6 µM
same,IC50,[16],98 nM
same,IC50,[17],53.5 µM
same,IC50,H322 (lung carcinoma) [18],122 µM
same,IC50,[19],63 µM
same,IC50,[20],98 nM
same,IC50,MCF-7 (breast carcinoma) [21],64.4 µM
same,IC50,[22],208 µM
same,IC50,[23],98 nM
same,IC50,[24],69.1 µM
same,IC50,[25],1.11 mM
same,IC50,SK-MEL-28 (melanoma),100 µM
same,IC50,[26],60.6 µM
same,Water solubility,physchem,< 0.10 mg/mL
same,prevention of CaCl2-induced depolymerization of microtubules,tubulin / microtubules,stabilizes microtubules against CaCl2-induced depolymerization; also recorded: suppressed; also recorded: did not cause depolymerization
same,selectivity against cancer cells versus normal cells,[27],rather impressive selectivity
same,water solubility of taxol,[28],only slightly soluble in water; also recorded: essentially insoluble in water

# Reference: patent publication US5817840A, “Water soluble taxol derivatives” (The Scripps Research Institute, priority 1997, dated 1998)
